This note sets out measurements from US9944613B2, “Fumagillol spirocyclic compounds and fused bicyclic compounds and methods of making and using same” (Zafgen, Inc., priority 2015, dated 2018).

pEC50, pIC50: −log10 of the molar value.

Series [1] relates to human fibrosarcoma cell line HT-1080. In words: HT-1080 cell growth inhibition (CellTiter-Glo, 72 hours). The format is cell-based. As to conditions: HT-1080 cells, 72 hours incubation. As for the experimental part:
The human fibrosarcoma cell line HT-1080 were grown to almost complete confluence in T75 tissue culture flasks in preparation for the experiment. The cells were trypsinised and re-suspended in complete medium using DMEM plus 9% FBS including penicillin/streptomycin supplements. 500 cells in a total volume of 25 μl were seeded into black walled 384 well plates and returned to a CO2 incubator over-night. Compounds and standards were prepared at 333.3× actual test concentration in neat DMSO. 10 point dose response curves of test compounds were generated by 1:3 serial dilutions, 2 μl of DMSO stock was transferred to 109 μl complete medium. This was further diluted 1:6 in complete medium, with 5 μl of the resulting solution added to the incubated 384 well plate. […] For experimental blanks at the start of the experiment, CellTiter-Glo was added to a satellite plate of cells (identical to the experimental plate), when adding compounds on Day 1. The average of these wells is used as the blanks in the calculation template. […] Luminescence per well was determined using an EnVision 2104 Multilabel Reader (PerkinElmer) or other suitable reader. The compound blank value recorded on Day 1 is subtracted from all other data. […] The EC50 values are determined from a sigmoidal 4 parameter curve fit using XLfit in conjunction with Activity Base (IDBS; Guildford, Surrey, UK). […]

The test system of series [2] is Diet Induced Obese (DIO) C57BL/6 mice. In words: 10 day DIO mouse model, weight loss vs. vehicle. The format is in vivo. As to conditions: 240 h, 0.3 mpk sc once a day for 10 days.
Series [3] relates to pregnant Sprague Dawley rats (embryo/fetal development). The series is described as follows: Rat embryofetal development study. As to conditions: 6 mpk subcutaneously once every three days, Gestation Days 6-18, pregnant rats. The format is in vivo. From the text:
Study Summary Rat Embryofetal:
The objective of this study design was to evaluate the potential effects of disclosed compounds on embryo/fetal development when given subcutaneously to pregnant rats once every three days during the critical period of organogenesis (Gestation Days 6-18). Female, Sprague Dawley rats, approximately 10 weeks of age, time bred, were ordered from a certified vendor and housed individually housed in stainless steel cages suspended over flush pans, on a 12-hour light-dark cycle (0700-1900) at 20-26° C. and 30-70% humidity. Rats were fed a standard rodent chow and provided water ad libitum. Rats were received and housed in the facility for a period of approximately 1 to 2 days.
Compounds were formulated using 100% DMSO mixed in Sterile Water for Injection, resulting in 2% DMSO solution in water. If necessary, due to limited solubility of a test article, a higher percentage of DMSO solution in water was used. Groups of 8 mated and presumed pregnant female rats were given subcutaneous doses of vehicle or test article, once every three days, beginning on Gestation Day 6 and ending on Gestation Day 18 (Days 6, 9, 12, 15, and 18), maintained two more days, and then euthanized and necropsied on Gestation Day 20. Body weights was recorded for all animals on Gestation Days 5 (purpose of randomization), 6, 9, 12, 15, 18, and 20 (scheduled euthanasia). Food consumption by weight was recorded on Gestation Days 6, 9, 12, 15, 18, and 20 (scheduled termination).
At necropsy, the dams were examined visually for external abnormalities including palpable masses. The abdominal, thoracic, and cranial cavities and their contents were examined for abnormalities and findings will be recorded. The reproductive tract were examined to record the number of ovarian corpora lutea, the number and location of uterine implantation sites noting the position of the cervix, and the number of early resorptions, late resorptions, live fetuses, and dead fetuses. For dead fetuses and late resorptions, crown-to-rump length and weight were recorded, if possible, and the fetus was discarded. For viable fetuses, weight, sex, and grossly visible external abnormalities were recorded.

The test system of series [4] is rat DIO model (Sprague Dawley rats on high fat diet). In words: 11 day rat DIO model, weight loss vs. vehicle. Type of series: in vivo. As to conditions: Rattus norvegicus, 264 h, 0.3 mpk sc once a day for 11 days. From the text: The objective of this study design is to investigate the efficacy of disclosed compounds in an 11 day rat DIO model used to screen compounds for pharmacologic efficacy on endpoints related to obesity and metabolism. Effects on body weight, food intake, hematology and blood chemistries were the primary readouts of this study design. Male Sprague Dawley rats, approximately 8 weeks of age, were ordered from a certified vendor and housed on irradiated corncob bedding in micro-isolator cages, on a 12-hour light-dark cycle (0700-1900) at 68-74° F. and 30-70% humidity. Rats were fed Research Diets D12451 (45% High Fat) and provided water ad libitum. Rats were received and housed in the facility for at least two or three weeks prior to start of test article administration. On Day −4 or −3, rats were randomized into study groups based on body weight and body weights were continued to be recorded daily for the duration of the study. Daily food intake was assessed starting on Study Day −2 by weighing the hopper including the food to avoid loss of food in transfer.
Compounds were formulated into a 100% DMSO stock (at 9 mg/mL) prior to the start, and further diluted into the target working concentration using the vehicle of 10% DMSO in water. Prior to test article administration, starting on Day −3 a dosing acclimation occured with all animals receiving a subcutaneous injection of vehicle (10% DMSO) only for 3 days. Starting on Day 1, test compounds or vehicle were administered based on individual body weight, subcutaneously, once a day for 11 days. All animals were sacrificed on Day 11, approximately 2 hours following the final dosing on Day 11. After sacrifice, whole blood was collected and analyzed for hematology and blood chemistry parameters.
Compounds were tested for weight loss vs. vehicle at 0.3 and 1.0 mpk sc (mg per kg animal weight delivered subcutaneously), and the results are shown in Table 2 below.

A further series has as its target T1, recombinant human MetAP2 (Homo sapiens, UniProt P50579).
T1 construct: Flag; made in house
The series is described as follows: Inhibition of recombinant human MetAP2 activity (MAS peptide / amino acid oxidase / Amplex assay). The format is biochemical. As to conditions: Flag tagged human recombinant MetAP2, 25 minutes at 25° C.; read-out: MetAP2 IC50.

T1 sequence (P50579 whole entry): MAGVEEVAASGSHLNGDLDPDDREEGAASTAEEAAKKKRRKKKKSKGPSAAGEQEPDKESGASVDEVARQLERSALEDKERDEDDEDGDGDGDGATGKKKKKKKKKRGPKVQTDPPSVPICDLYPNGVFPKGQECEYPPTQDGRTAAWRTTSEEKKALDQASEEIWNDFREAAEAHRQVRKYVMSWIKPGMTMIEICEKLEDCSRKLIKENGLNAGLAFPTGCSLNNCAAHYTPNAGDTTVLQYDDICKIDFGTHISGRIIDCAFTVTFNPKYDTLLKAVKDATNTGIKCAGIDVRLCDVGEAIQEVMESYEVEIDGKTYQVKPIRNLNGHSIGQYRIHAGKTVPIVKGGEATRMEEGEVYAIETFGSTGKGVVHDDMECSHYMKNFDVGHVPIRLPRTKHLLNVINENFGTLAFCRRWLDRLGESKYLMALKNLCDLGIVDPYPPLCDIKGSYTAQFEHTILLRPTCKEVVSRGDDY

Usually pEC50 stands for the negative decadic logarithm of the EC50, by convention in mol/L. For orientation: inhibition in vivo means the percentage by which the read-out fell short of the control. As for `CO[C@@H]1[C@H](OC(=O)/C=C/c2ccc(OCCN(C)C)cc2)CC[C@]2(CO2)[C@H]1[C@@]1(C)O[C@@H]1CC=C(C)C` [compound A, [(3R,6R,7S,8S)-7-methoxy-8-[(2R,3R)-2-methyl-3-(3-methylbut-2-enyl)oxiran-2-yl]-2-oxaspiro[2.5]octan-6-yl] (E)-3-[4-[2-(dimethylamino)ethoxy]phenyl]prop-2-enoate, reference compound], the negative logarithm of the EC50 (pEC50) in series [1] was 9.00 to 9.30. In addition, the inhibition in vivo at 0.3 mg/kg in series [2] came to 18%; in series [4] it was 20%. The “Rat Embryofetal @6 mpk” value in series [3] is recorded as “Positive”.

A word on the pIC50: it is the IC50 on a negative log10 scale, so that one unit is a factor of ten. As to `CO[C@@H]1[C@H](OC(=O)N2CCC3(COC3)C2)CC[C@]2(CO2)[C@H]1[C@@]1(C)O[C@@H]1CC=C(C)C` [Example 4, (3R,4S,5S,6R)-5-methoxy-4-((2R,3R)-2-methyl-3-(3-methylbut-2-en-1-yl)oxiran-2-yl)-1-oxaspiro[2.5]octan-6-yl 2-oxa-6-azaspiro[3.4]octane-6-carboxylate], the negative logarithm of the EC50 (pEC50) in series [1] is above 9.30. Also, in series [2], testing at 0.3 mg/kg gave an inhibition in vivo of 15.4%. The “Rat Embryofetal @6 mpk” value in series [3] is on record as “Negative”. Moreover, the pIC50 at recombinant human MetAP2 was above 7.30.
